Measured values from patent US20250179059A1 (The Regents of the University of California, priority 2021, published 2025).
Read-outs that look alike come from different tables or passages of the source.

Key:
[1] = system: human SKM-1 acute myeloid leukemia cells; assay: SKM-1 antiproliferation cell-based assay (ATPlite); details: Homo sapiens
How it was run: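 Log-phase cells in RPMI 1640/15% FBS were seeded at 34722 cells/mL and exposed for 4 days to nine-concentration DMSO serial dilutions in triplicate. Viability was read as ATP luminescence (ATPlite 1step), and IC50 values came from variable-slope non-linear regression.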

[2] = target: T1, human BRD4 bromodomain II (Homo sapiens, UniProt O60885); assay: Bromodomain binding assay (AlphaScreen), BRD4 BDII
T1 construct: human BRD4 bromodomain II [based on Genbank NM_058243, residues 349-460]; host or cells: E. coli
How it was run: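 Read-out is AlphaScreen signal (ex 680 nm, em 520-620 nm) from streptavidin donor beads on a biotinylated acetylated histone H4 (aa 1-21) peptide and nickel acceptor beads on the His6-tagged bromodomain. IC50 values come from curve fits of percentage peptide binding against compound concentration.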

[3] = SKM-1, 96 h, SKM-1 antiproliferation assay, 4 days, Table C2
[4] = AlphaScreen assay, Table C2, read-out: BRD4 BDII IC50
[5] = SKM-1, SKM-1 antiproliferation assay
[6] = BRD4 BDII AlphaScreen assay, read-out: BRD4 BD2 IC50

For `C[C@@H]1CN(c2cc(-c3cc(F)cc(-c4ccc(-n5ccn(C)c5=O)c(Cl)c4)c3O)cc3c2cnn3C)CCN1` [Example 580], the GI50 [1, 3] was 0.3 to 30 nM and the IC50 [2, 4] was 0.01 to 1 nM.
For `Cc1cc(-c2ccc(-n3ccn(C)c3=O)c(Cl)c2)c(O)c(-c2ccnc(N3CC[C@@](C)(O)C3)c2)n1` [Example 996, (R)-1-(2-chloro-4-(3-hydroxy-2′-(3-hydroxy-3-methylpyrrolidin-1-yl)-6-methyl-[2,4′-bipyridin]-4-yl)phenyl)-3-methyl-1H-imidazol-2(3H)-one], the GI50 [1, 5] was 0.3 to 30 nM and the IC50 [2, 6] was 1 to 10 nM.
In the case of `CN(C)[C@@H]1CN(c2cc(-c3cc(F)cc(-c4ccc(-n5ccn(C)c5=O)c(Cl)c4)c3O)ccn2)C[C@H]1O` [Example 752, 1-(3-chloro-3′-(2-((3R,4R)-3-(dimethylamino)-4-hydroxypyrrolidin-1-yl)pyridin-4-yl)-5′-fluoro-2′-hydroxy-[1,1′-biphenyl]-4-yl)-3-methyl-1H-imidazol-2(3H)-one], the GI50 [1, 3] is reported as 0.3 to 30 nM and the IC50 [2, 4] is reported as 0.01 to 1 nM.
In the case of `CC(=O)Nc1ccc(-c2cc(F)cc(-c3ccnc(N4CC5(CNC5)C4)c3)c2O)cc1Cl` [Example 298, N-(3′-(2-(2,6-diazaspiro[3.3]heptan-2-yl)pyridin-4-yl)-3-chloro-5′-fluoro-2′-hydroxy-[1,1′-biphenyl]-4-yl)acetamide], the GI50 [1, 3] is reported as 30 to 300 nM and the IC50 [2, 4] is reported as 10 to 100 nM.
`O=C1CCCN1c1c(Cl)cc(-c2cc(F)cc(-c3ccnc(N4CCNCC4)c3)c2O)cc1Cl` [Example 402, 1-(3,5-dichloro-5′-fluoro-2′-hydroxy-3′-(2-(piperazin-1-yl)pyridin-4-yl)-[1,1′-biphenyl]-4-yl)pyrrolidin-2-one] was tested, and the GI50 [1, 3] was 300 to 3000 nM and the IC50 [2, 4] was greater than 100 nM.
With `Cn1ccn(-c2ccc(-c3cc(F)cc(-c4ccnc(N5CCC(N)CC5)c4)c3O)cc2Cl)c1=O` [Example 414, 1-(3′-(2-(4-aminopiperidin-1-yl)pyridin-4-yl)-3-chloro-5′-fluoro-2′-hydroxy-[1,1′-biphenyl]-4-yl)-3-methyl-1H-imidazol-2(3H)-one] the GI50 [1, 3] was 30 to 300 nM and the IC50 [2, 4] was 0.01 to 1 nM.
`Cn1ccn(-c2ccc(-c3cc(F)cc(-c4ccnc(N5CCOCC5)c4)c3O)cc2Cl)c1=O` [Example 615, 1-(3-chloro-5′-fluoro-2′-hydroxy-3′-(2-morpholinopyridin-4-yl)-[1,1′-biphenyl]-4-yl)-3-methyl-1H-imidazol-2(3H)-one] gave a GI50 [1, 3] of 30 to 300 nM and an IC50 [2, 4] of 1 to 10 nM.
`CC(C)[C@@H]1CN(c2cc(-c3cc(F)cc(-c4ccc(-n5ccn(C)c5=O)c(Cl)c4)c3O)ccn2)CCN1` [Example 667, (R)-1-(3-chloro-5′-fluoro-2′-hydroxy-3′-(2-(3-isopropylpiperazin-1-yl)pyridin-4-yl)-[1,1′-biphenyl]-4-yl)-3-methyl-1H-imidazol-2(3H)-one] gave a GI50 [1, 3] of 0.3 to 30 nM and an IC50 [2, 4] of 0.01 to 1 nM.
Work on `CC(=O)Nc1ccc(-c2cccc(-c3cc(OC4CC4)nc(N4CCNCC4)c3)c2O)cc1F` [Example 351, N-(3′-(2-cyclopropoxy-6-(piperazin-l-yl)pyridin-4-yl)-3-fluoro-2′-hydroxy-[1,1′-biphenyl]-4-yl)acetamide] yielded a GI50 [1, 3] of 300 to 3000 nM and an IC50 [2, 4] of 10 to 100 nM.
With `CN1CCN(c2ccc(-c3cc(F)cc(-c4cnc(C(=O)O)c(N5CCNCC5)c4)c3O)cc2Cl)C1=O` [Example 398, 5−(3′-chloro-5-fluoro-2-hydroxy-4′-(3-methyl-2-oxoimidazolidin-1-yl)-[1,1′-biphenyl]-3-yl)-3-(piperazin-1-yl)picolinic acid] the GI50 [1, 3] was no less than 3000 nM and the IC50 [2, 4] was 10 to 100 nM.
Compound `[2H]C([2H])([2H])n1ccn(-c2ccc(-c3cc(F)cc(-c4ccnc(N5CCC[C@H](N)C5)c4)c3O)cc2Cl)c1=O` [Example 452, (S)-1-(3′-(2-(3-aminopiperidin-1-yl)pyridin-4-yl)-3-chloro-5′-fluoro-2′-hydroxy-[1,1′-biphenyl]-4-yl)-3-deuteromethyl-1H-imidazol-2(3H)-one] has a GI50 [1, 3] of 0.3 to 30 nM and an IC50 [2, 4] of 0.01 to 1 nM.
Work on `C[C@@H]1CN(c2cc(-c3cc(F)cc(-c4ccc(-n5ccn(C)c5=O)c(Cl)c4)c3O)cc3[nH]ccc23)CCN1` [Example 551, (R)-1-(3-chloro-5′-fluoro-2′-hydroxy-3′-(4-(3-methylpiperazin-1-yl)-1H-indol-6-yl)-[1,1′-biphenyl]-4-yl)-3-methyl-1H-imidazol-2(3H)-one] yielded a GI50 [1, 3] of 0.3 to 30 nM and an IC50 [2, 4] of 0.01 to 1 nM.
With `Cc1ncc(-c2cc(F)cc(-c3ccc(-n4ccn(C)c4=O)c(Cl)c3)c2O)cc1N1CC(C)(C)[C@](C)(O)C1` [Example 884] the GI50 [1, 5] was 30 to 300 nM and the IC50 [2, 6] was 1 to 10 nM.
`O=C1CCCN1c1ccc(-c2cccc(-c3ccnc(N4CC5(CNC5)C4)c3)c2O)cc1F` [Example 284, 1-(3′-(2-(2,6-diazaspiro[3.3]heptan-2-yl)pyridin-4-yl)-3-fluoro-2′-hydroxy-[1,1′-biphenyl]-4-yl)pyrrolidin-2-one] gave a GI50 [1, 3] of 300 to 3000 nM and an IC50 [2, 4] of 10 to 100 nM.
Compound `COc1ncc(-c2nc(C)cc(-c3ccc(-n4ccn(C)c4=O)c(C)c3)c2O)cc1N1CCN(C(C)(C)C)CC1` [Example 1015, 1-(4-(5′-(4-(tert-butyl)piperazin-1-yl)-3-hydroxy-6′-methoxy-6-methyl-[2,3′-bipyridin]-4-yl)-2-methylphenyl)-3-methyl-1H-imidazol-2(3H)-one] has a GI50 [1, 5] of 0.3 to 30 nM and an IC50 [2, 6] of 1 to 10 nM.
With `Cc1cc(-c2ccc(-n3ccn(C)c3=O)c(Cl)c2)c(O)c(-c2cc(N3CCN(C(C)(C)C)CC3)cc(F)c2F)n1` [Example 1027, 1-(4-(2-(5-(4-(tert-butyl)piperazin-1-yl)-2,3-difluorophenyl)-3-hydroxy-6-methylpyridin-4-yl)-2-chlorophenyl)-3-methyl-1H-imidazol-2(3H)-one] the GI50 [1, 5] was 0.3 to 30 nM and the IC50 [2, 6] was 0.01 to 1 nM.
In the case of `CC(=O)Nc1ccc(-c2cccc(-c3ccc(N4CCN(C)C4=O)c(Cl)c3)c2O)cc1N1CCNCC1` [Example 330, N-(3″-chloro-2′-hydroxy-4″-(3-methyl-2-oxoimidazolidin-1-yl)-3-(piperazin-1-yl)-[1,1′:3′,1″-terphenyl]-4-yl)acetamide], the GI50 [1, 3] is reported as 30 to 300 nM and the IC50 [2, 4] is reported as 1 to 10 nM.
With `COc1ncc(-c2cc(F)cc(-c3ccc(-n4cc(C)n(C)c4=O)c(Cl)c3)c2O)cc1N1CCN(C(C)(C)C)CC1` [Example 982, 1-(3′-(5-(4-(tert-butyl)piperazin-1-yl)-6-methoxypyridin-3-yl)-3-chloro-5′-fluoro-2′-hydroxy-[1,1′-biphenyl]-4-yl)-3,4-dimethyl-1H-imidazol-2(3H)-one] the GI50 [1, 5] was 30 to 300 nM and the IC50 [2, 6] was 1 to 10 nM.
With `CN1CCN(c2ccc(-c3cccc(-c4ccc(CO)c(N5CCNCC5)c4)c3O)cc2Cl)C1=O` [Example 317, 1-(3-chloro-2′-hydroxy-4″-(hydroxymethyl)-3″-(piperazin-1-yl)-[1,1′:3′,1″-terphenyl]-4-yl)-3-methylimidazolidin-2-one] the GI50 [1, 3] was 30 to 300 nM and the IC50 [2, 4] was 1 to 10 nM.
For `Cc1ncc(-c2cc(F)cc(-c3ccc(-n4ccn(C)c4=O)c(Cl)c3)c2O)cc1N1CC(C)(O)C2(CC2)C1` (stereo not shown) [Example 829, 1-(3-chloro-5′-fluoro-2′-hydroxy-3′-(5-(7-hydroxy-7-methyl-5-azaspiro[2.4]heptan-5-yl)-6-methylpyridin-3-yl)-[1,1′-biphenyl]-4-yl)-3-methyl-1H-imidazol-2(3H)-one], the GI50 [1, 3] was 0.3 to 30 nM and the IC50 [2, 4] was 0.01 to 1 nM.
Compound `O=c1occn1-c1ccc(-c2cc(F)cc(-c3ccnc(N4CCNCC4)c3)c2O)cc1Cl` [Example 505, 3-(3-chloro-5′-fluoro-2′-hydroxy-3′-(2-(piperazin-1-yl)pyridin-4-yl)-[1,1′-biphenyl]-4-yl)oxazol-2(3H)-one] has a GI50 [1, 3] of 30 to 300 nM and an IC50 [2, 4] of 1 to 10 nM.
`Cc1cc(-c2ccc(-n3ccn(C)c3=O)c(Cl)c2)c(O)c(-c2cnc(N(C)C)c(N3CCC4(CCCN4C(C)C)C3)c2)n1` (stereo not shown) [Example 994, 1-(2-Chloro-4-(6′-(dimethylamino)-3-hydroxy-5′-(1-isopropyl-1,7-diazaspiro[4.4]nonan-7-yl)-6-methyl-[2,3′-bipyridin]-4-yl)phenyl)-3-methyl-1H-imidazol-2(3H)-one] showed a GI50 [1, 5] of 0.3 to 30 nM and an IC50 [2, 6] of 1 to 10 nM.
For `Cn1ccn(-c2ccc(-c3cc(F)cc(-c4ccnc(N5CCN(CC(C)(C)C#N)CC5)c4)c3O)cc2Cl)c1=O` [Example 652, 3-(4-(4-(3′-chloro-5-fluoro-2-hydroxy-4′-(3-methyl-2-oxo-2,3-dihydro-1H-imidazol-1-yl)-[1,1′-biphenyl]-3-yl)pyridin-2-yl)piperazin-1-yl)-2,2-dimethylpropanenitrile], the GI50 [1, 3] was 30 to 300 nM and the IC50 [2, 4] was 0.01 to 1 nM.
Compound `COc1ncc(-c2cc(F)cc(-c3ccc(-n4ccn(C)c4=O)c(Cl)c3)c2O)cc1N1CC(F)(F)[C@](C)(O)C1` [Example 900] has a GI50 [1, 5] of 30 to 300 nM and an IC50 [2, 6] of 0.01 to 1 nM.
Work on `CC(=O)N[C@@]1(C)CCN(c2cc(-c3cc(F)cc(-c4ccc(-n5ccn(C)c5=O)c(Cl)c4)c3O)cc(=O)n2C)C1` [Example 774, (S)-N-(1-(4-(3′-chloro-5-fluoro-2-hydroxy-4′-(3-methyl-2-oxo-2,3-dihydro-1H-imidazol-1-yl)-[1,1′-biphenyl]-3-yl)-1-methyl-6-oxo-1,6-dihydropyridin-2-yl)-3-methylpyrrolidin-3-yl)acetamide] yielded a GI50 [1, 3] of 30 to 300 nM and an IC50 [2, 4] of 1 to 10 nM.
`Cn1ccn(-c2ccc(-c3cc(F)cc(-c4cncc(N5C[C@@H](N)[C@H](O)C5)c4)c3O)cc2Cl)c1=O` [Example 491, 1-(3′-(5-((3R,4R)-3-amino-4-hydroxypyrrolidin-1-yl)pyridin-3-yl)-3-chloro-5′-fluoro-2′-hydroxy-[1,1′-biphenyl]-4-yl)-3-methyl-1H-imidazol-2(3H)-one] showed a GI50 [1, 3] of 30 to 300 nM and an IC50 [2, 4] of 0.01 to 1 nM.
